The IC50 is the point on the concentration scale where inhibition reaches its midpoint. Read a low IC50 as higher potency.

One assay has as its target T1, Ketohexokinase (Human, UniProt P50053).
T1 sequence (P50053 whole entry): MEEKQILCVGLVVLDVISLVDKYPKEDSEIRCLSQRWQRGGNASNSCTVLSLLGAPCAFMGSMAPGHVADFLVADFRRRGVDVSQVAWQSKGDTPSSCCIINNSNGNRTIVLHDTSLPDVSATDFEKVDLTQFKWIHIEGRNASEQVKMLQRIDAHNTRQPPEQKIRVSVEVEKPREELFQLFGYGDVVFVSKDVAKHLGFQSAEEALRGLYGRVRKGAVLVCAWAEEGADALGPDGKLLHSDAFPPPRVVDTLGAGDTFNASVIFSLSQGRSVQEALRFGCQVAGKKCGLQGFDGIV
As to the kind of experiment: KHK Biochemical Assay. As to the method: (§1) Compounds were tested for KHK enzyme inhibition in a high-throughput 384-well assay format using the ADP-Glo assay (Promega) in buffer consisting of 50 mM Hepes (pH 7.4), 140 mM KCl, 5 mM MgCl2 and 0.01% Triton-X. 0.2 nM. […] Compounds were serially diluted (1:3) in DMSO. […] The plates were incubated at room temperature for 4 hours before adding ADP-Glo reagent to quench the enzyme reaction, followed by incubation at room temperature for 1 hour. The ADP-Glo detection reagent was then added to the plates and luminescence was measured on the Envision plate reader after 1 hour.

Assay [1] addresses T2, Isoform A of Ketohexokinase (Peripheral) (Human, UniProt P50053).
T2 sequence (P50053 whole entry): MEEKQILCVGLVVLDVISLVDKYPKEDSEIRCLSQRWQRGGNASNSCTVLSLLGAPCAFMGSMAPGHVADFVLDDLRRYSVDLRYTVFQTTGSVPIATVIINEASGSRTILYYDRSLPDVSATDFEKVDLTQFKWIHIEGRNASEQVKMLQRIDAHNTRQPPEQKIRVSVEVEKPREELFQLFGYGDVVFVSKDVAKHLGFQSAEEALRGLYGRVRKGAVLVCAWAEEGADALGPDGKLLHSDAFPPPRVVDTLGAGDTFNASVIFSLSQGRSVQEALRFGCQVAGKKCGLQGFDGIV
As to the kind of experiment: KHK Biochemical Assay. As to the method:
as §1

As for `C[C@H]1[C@H](CO)CN1c1nc2c(c(-c3ccc(C(N)=O)cc3)n1)CCC2` (racemic) [US12410160, Example 267], on Ketohexokinase, the concentration for half-maximal inhibition (IC50) was > 5000 nM.

With `C[C@H]1[C@H](F)CN1c1nc2c(c(-c3ccc4c(c3)C(=O)N(C)C4)n1)CCC2` [US12410160, Example 203], the IC50 in assay [1] is 66.5 nM; on Ketohexokinase it was 29.8 nM.

Turning to `C[C@H]1CCN1c1nc2c(c(-c3ccc4c(c3)C(=O)N(C)C4)n1)CCC2` [US12410160, Example 206], the concentration for half-maximal inhibition (IC50) in assay [1] is 24.4 nM; against Ketohexokinase it was 16 nM.

In the case of `C[C@H]1[C@H](O)CN1c1nc2c(c(-c3cccc(S(N)(=O)=O)c3)n1)CCC2` [US12410160, Example 209], the results for the IC50 (in assay [1]; on Ketohexokinase) were 35.4 nM and 55.3 nM, respectively.

Regarding `C[C@H]1CCN1c1nc2c(c(-c3cccc(S(N)(=O)=O)n3)n1)CCC2` [US12410160, Example 223], the IC50 was 33.7 nM in assay [1] and 26.9 nM against Ketohexokinase.

As for `C[C@H]1CCN1c1nc2c(c(-c3ccnc(S(N)(=O)=O)c3)n1)CCC2` [US12410160, Example 224], the IC50 in assay [1] was found to be 155 nM; on Ketohexokinase, 114 nM.

`C[C@H]1CCN1c1nc2c(c(-c3cccc(C4(N)CC4)c3)n1)CCC2` [US12410160, Example 225]: the figures for the IC50 (in assay [1]; against Ketohexokinase) were 294 nM and 343 nM, respectively.

In turn, `C[C@H]1[C@H](O)CN1c1nc(-c2ccc3c(c2)C(=O)N(C)C3)c2c(n1)C(F)(F)CC2` [US12410160, Example 236] returned a 50% inhibitory concentration (IC50) against Ketohexokinase of 5.4 nM.

In the case of `C[C@H]1CCN1c1nc(-c2cccc(C(N)=O)c2)c2c(n1)C1CC1C2` (some centres undefined) [US12410160, Example 272], the IC50 in assay [1] was 267 nM; against Ketohexokinase, 319 nM.

For `C[C@H]1CCN1c1nc2c(c(-c3ccnc(F)c3)n1)CCC2` [US12410160, Example 281], the IC50 in assay [1] came to 340 nM.

In the case of `C[C@H]1CCN1c1nc2c(c(-c3ccc4c(c3)CCNC4=O)n1)CCC2` [US12410160, Example 283], the IC50 in assay [1] was 28.6 nM; against Ketohexokinase, 15.8 nM.

For `C[C@H]1[C@H](F)CN1c1nc2c(c(-c3cccc(S(N)(=O)=O)c3)n1)CCOC2` [US12410160, Example 287], the values for the IC50 (in assay [1]; against Ketohexokinase) were 696 nM and 1270 nM, respectively.

Regarding `C[C@H]1CCN1c1nc2c(c(-c3ccc(C4(NS(C)(=O)=O)CC4)cc3)n1)CCC2` [US12410160, Example 306], the half-inhibitory concentration (IC50) in assay [1] is 279 nM.

On to `CC1CCCc2nc(N3CC[C@@H]3C)nc(-c3ccccc3)c21` (some centres undefined) [US12410160, Example 340], for which the IC50 in assay [1] is > 50000 nM.

Consider `C[C@H]1CCN1c1nc2c(c(-c3cncn3C)n1)CCC2` [US12410160, Example 341], for which the IC50 in assay [1] is 133 nM; against Ketohexokinase, 111 nM.

In the case of `C[C@H]1[C@H](F)CN1c1nc2c(c(-c3cccc(CN)c3)n1)CCC2` [US12410160, Example 352], the IC50 in assay [1] came to 35.6 nM; at Ketohexokinase, 29.8 nM.

`CCOC(=O)NCc1ccc(-c2nc(N3CC[C@@H]3C)nc3c2CCC3)cc1` [US12410160, Example 358]: the IC50 in assay [1] is 435 nM; against Ketohexokinase it was 293 nM.

As to `C[C@H]1CCN1c1nc2c(c(-c3ccc(CNS(C)(=O)=O)cc3)n1)CCC2` [US12410160, Example 361], the IC50 in assay [1] came out at 68.4 nM; against Ketohexokinase it was 30.3 nM.

As for `C[C@H]1[C@H](O)CN1c1nc2c(c(-c3ccc(C(C)(C)O)cc3)n1)CCC2` [US12410160, Example 371], the IC50 in assay [1] was 442 nM; on Ketohexokinase, 187 nM.

As to `C[C@H]1[C@H](O)CN1c1nc2c(c(-c3ccc4c(N)nccc4c3)n1)CCC2` [US12410160, Example 385], the figures for the 50% inhibitory concentration (IC50) (in assay [1]; on Ketohexokinase) were 4.2 nM and 1.8 nM, respectively.

Consider `C[C@H]1CCN1c1nc2c(c(-c3nc4ccccc4[nH]3)n1)CCC2` [US12410160, Example 389], for which the IC50 in assay [1] was 296 nM; on Ketohexokinase it was 382 nM.

In the case of `C[C@H]1CCN1c1nc(-c2ccc(C(N)=O)cc2)c2cn[nH]c2n1` [US12410160, Example 401], the midpoint of inhibition at Ketohexokinase, the IC50, lay at 4630 nM.

Regarding `C[C@H]1[C@H](O)CN1c1nc(-c2ccc(OC(F)F)c(S(C)(=N)=O)c2)c2c(n1)C(F)(F)CC2` (some centres undefined) [US12410160, Example 532], half-maximal inhibition against Ketohexokinase (IC50) was put at 2.8 nM.

Turning to `C[C@H]1[C@H](O)CN1c1nc(-c2ccc3c(c2)CCC32COCCC(=O)N2)c2c(n1)C(F)(F)CC2` (some centres undefined) [US12410160, Example 552], at Ketohexokinase, the midpoint of inhibition, the IC50, lay at 39.2 nM.

Take `NC1(c2ccc(-c3nc(N4CCC4C4CC(F)(F)C4)nc4c3CCC4(F)F)cc2)COC1` (centres undefined) [US12410160, Example 573]: the 50% inhibitory concentration (IC50) in assay [1] is > 100 nM.

For `C[C@H]1[C@H](O)CN1c1nc(-c2ccc3c(c2)COC[C@@H]3NS(=O)(=O)CF)c2c(n1)C(F)(F)CC2` [US12410160, Example 580], the IC50 turned out to be 13 nM in assay [1] and 3.7 nM against Ketohexokinase.

In the case of `Cc1cc(-c2nc(N3CC[C@@H]3C(F)(F)F)nc3c2CCC3(F)F)ccc1C1(N)COC1` [US12410160, Example 586], the IC50 stood at 1.3 nM in assay [1] and 0.7 nM at Ketohexokinase.

Turning to `FC1(F)CCc2c(-c3ccc4c(c3)OC[C@@H]4NC3COC3)nc(N3CC[C@@H]3C(F)(F)F)nc21` [US12410160, Example 588], the values for the IC50 (in assay [1]; on Ketohexokinase) were 9.3 nM and 3.7 nM, respectively.

With `C[C@H]1[C@H](O)CN1c1nc(-c2ccc3c(c2)OC(C(F)F)CNC3=O)c2c(n1)C(F)(F)CC2` (some centres undefined) [US12410160, Example 597], at Ketohexokinase, the IC50 came out at 5.6 nM.

With `C[C@H]1CCN1c1nc2c(c(-c3ccc4c(c3)CN(S(=O)(=O)CC#N)CC4)n1)CCC2` [US12410160, Example 604], at Ketohexokinase, the IC50 is 239 nM.

As to `C[C@H]1CCN1c1nc2c(c(-c3cccc(C4CCS(=O)(=O)N4)c3)n1)CCC2` (some centres undefined) [US12410160, Example 606], the half-maximal inhibitory concentration (IC50) against Ketohexokinase stood at 15.3 nM.

As for `C[C@H]1[C@H](O)CN1c1nc(-c2ccc3c(c2)CNCC3)c2c(n1)C(F)(F)CC2` [US12410160, Example 612], on Ketohexokinase, half-maximal inhibition (IC50) was put at 32.6 nM.

With `C[C@H]1[C@H](O)CN1c1nc(-c2ccc3c(c2)C(NS(C)(=O)=O)CO3)c2c(n1)C(F)(F)CC2` (some centres undefined) [US12410160, Example 613], on Ketohexokinase, 4.3 nM corresponded to half-maximal inhibition (IC50).

Turning to `C[C@H]1[C@H](O)CN1c1nc(-c2cccc(-n3cnnc3)c2)c2c(n1)C(F)(F)CC2` [US12410160, Example 619], the IC50 against Ketohexokinase is 14.3 nM.

`C[C@H]1[C@H](O)CN1c1nc(-c2ccc3c(c2)C(NS(C)(=O)=O)CC3)c2c(n1)C(F)(F)CC2` (some centres undefined) [US12410160, Example 621]: half-maximal inhibition against Ketohexokinase (IC50) required 1.3 nM.

Consider `CCS(=O)(=O)N[C@H]1COc2cc(-c3nc(N4C[C@@H](O)[C@@H]4C)nc4c3CCC4(F)F)ccc21` [US12410160, Example 624], for which, at Ketohexokinase, the IC50 was 7.3 nM.

In turn, `C[C@H]1CCN1c1nc2c(c(-c3cn(C4CC4)nn3)n1)CCC2` [US12410160, Example 644] yielded an IC50 against Ketohexokinase of 220 nM.

On to `C[C@H]1CCN1c1nc2c(c(-c3cn(CCO)nn3)n1)CCC2` [US12410160, Example 645], for which, on Ketohexokinase, the IC50 is 158 nM.

Compound `C[C@H]1[C@H](O)CN1c1nc(-c2cn(C3CNC3)nn2)c2c(n1)C(F)(F)CC2` [US12410160, Example 647] had a half-inhibitory concentration (IC50) against Ketohexokinase of 15.5 nM.

At Ketohexokinase, `C[C@H]1CCN1c1nc(-c2ccc([C@H](N)C(F)F)cc2)c2c(n1)C(F)(F)CC2` [US12410160, Example 650] returned an IC50 of 6.6 nM.

`C[C@H]1CCN1c1nc(-c2cn(C3CNC3)nn2)c2c(n1)C(F)(F)CC2` [US12410160, Example 653] had an IC50 against Ketohexokinase of 8.2 nM.

Take `C[C@H]1CCN1c1nc(-c2cccc(-n3ccnn3)c2)c2c(n1)C(F)(F)CC2` [US12410160, Example 654]: it took 16.4 nM to reach half-maximal inhibition against Ketohexokinase (IC50).

Turning to `C[C@H]1CCN1c1nc(-c2ccc(-n3ccnn3)cc2)c2c(n1)C(F)(F)CC2` [US12410160, Example 655], the IC50 against Ketohexokinase was found to be 25.1 nM.

Consider `N#C[C@H]1CCN1c1nc(-c2ccc([C@@H](N)C(F)F)cc2)c2c(n1)C(F)(F)CC2` [US12410160, Example 660], for which the IC50 against Ketohexokinase came to 5.7 nM.

Take `C[C@H]1[C@H](O)CN1c1nc(-c2ccc3c(c2)CCS3(=N)=O)c2c(n1)C(F)(F)CC2` (some centres undefined) [US12410160, Example 664]: half-maximal inhibition on Ketohexokinase (IC50) required 17.3 nM.

Regarding `C[C@H]1[C@H](O)CN1c1nc(-c2ccc3c(c2)S(=O)(=O)CC3NS(C)(=O)=O)c2c(n1)C(F)(F)CC2` (some centres undefined) [US12410160, Example 665], the midpoint of inhibition against Ketohexokinase, the IC50, lay at 0.9 nM.

Consider `C[C@H]1[C@H](O)CN1c1nc(-c2cccc(N=S3(=O)CCOCC3)c2)c2c(n1)C(F)(F)CC2` [US12410160, Example 673], for which the IC50 on Ketohexokinase worked out at 9.2 nM.

For `C[C@H]1CCN1c1nc(-c2ccc(C#N)c(S(C)(=N)=O)c2)c2c(n1)C(F)(F)CC2` (some centres undefined) [US12410160, Example 798], at Ketohexokinase, the concentration for half-maximal inhibition (IC50) amounted to 51.9 nM.

`C[C@H]1[C@H](O)CN1c1nc(-c2ccc3c(c2)S(C)(=O)=NC3)c2c(n1)C(F)(F)CC2` (some centres undefined) [US12410160, Example 805]: the IC50 at Ketohexokinase was determined as 18 nM.

`COC(=O)N[C@@H]1COc2cc(-c3nc(N4C[C@@H](O)[C@@H]4C)nc4c3CCC4(F)F)ccc21` [US12410160, Example 815] had an IC50 at Ketohexokinase of 9.2 nM.

(Values after BindingDB's records for patent US12410160 (Gilead Sciences, 2025).)
